Results: patent publication US20020028479A1, “Methods for the detection of fungal growth” (priority 2000, published 2002)

Experiments:
[1] = tested on: A. nidulans 200092; assay: Spore germination with indicator/electron donor added at T0, viewed microscopically; type: cell-based; settings: added at the same time as spores (T0), no viability at 48 hours
Description: Spores from a frozen stock of A. nidulans 200092 at 1.63×10^7/ml) were diluted to 5×10^3/ml to yield 500 spores per well in yeast extract with glucose broth supplemented with lysine and uridine.
Tetrazolium salts (listed in Table 1) were each dissolved to 1 mg/ml in phosphate-buffered saline (PBS) or water, aliquotted, and frozen. Electron coupling agents phenazine methosulfate (PMS; lot 194-03) and menadione (MEN; lot 170-95) were prepared at 5 mM in PBS and 10 mM in acetone, respectively. Cultures had no electron coupling reagent added, PMS (120 μl of PMS per 12 ml of tetrazolium salt) or MEN (42 μl per 12 ml of tetrazolium salt). Each well received 25 μl of indicator.
Indicator (with or without electron coupling reagent) was added at the same time as spores (T0), following ˜24 hours of incubation (T24), or following ˜48 hours of incubation (T48). Wells were viewed ˜2 hours post addition. NC denotes no color seen.
Microscopically, when compared to wells that had no indicator added or had PMS added, it was evident that the spores were present but had not germinated. At 48 hours, these same wells still had not shown any signs of viability.

[2] = tested on: Aspergillus nidulans 200092; assay: MTS/MEN growth inhibition assay, OD490;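 further: fungal spore suspensions in 96-well plates with MTS/MEN indicator, absorbance read after 2 h and again after further development up to 24 h, controls containing medium only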
Description: Spores from a frozen stock of Aspergillus nidulans 200092 (at 1.63×10^7/ml) were diluted to 5×10^3/ml to yield 500 spores per well in yeast extract with glucose broth supplemented with lysine and uridine.
MEN was added at a ratio of 42 μl MEN per 12 ml of MTS. Each well received 25 μl indicator.
98 μl of the spore suspension was added to the wells of a 96 well plate. Control wells received media only. […] Plates were then incubated for 2 hours and then read at OD490. MTS/MEN was then allowed to develop for an additional period of time up to 24 hours and the plates was re-read.

[3] = Aspergillus nidulans, 200092, 2 h
[4] = Aspergillus nidulans, 200092, 24 h

COc1cc(-c2ccc(-n3nc(-c4ccccc4)n[n+]3-c3ccccc3)c(OC)c2)ccc1-n1nc(-c2ccccc2)n[n+]1-c1ccccc1 [BT, Tetrazolium Blue Chloride]
germination or growth of the spores [1]: inhibit germination or growth of the spores

Clc1ccccc1C(c1ccccc1)(c1ccccc1)n1ccnc1 [Clotrimazole, clotrimazole]
inhibition at 0.0039 µg/mL [2, 3]: 15.8%
inhibition at 0.0078 µg/mL [2, 3]: 35.4%
inhibition at 0.0156 µg/mL [2, 3]: 26%
inhibition at 0.0313 µg/mL [2, 3]: 56.8%
inhibition at 0.0625 µg/mL [2, 3]: 86.5%
inhibition at 0.125 µg/mL [2, 3]: 94.6%
inhibition at 0.25 µg/mL [2, 3]: 93%
inhibition at 0.5 µg/mL [2, 3]: 93%
inhibition at 1 µg/mL [2, 3]: 94.5%
inhibition at 2 µg/mL [2, 3]: 93.4%
inhibition at 4 µg/mL [2, 3]: 95.8%
inhibition at 8 µg/mL [2, 3]: 94.4%
inhibition at 16 µg/mL [2, 3]: 94.4%
inhibition at 32 µg/mL [2, 3]: 91.5%
inhibition at 64 µg/mL [2, 3]: 86%
inhibition at 0.0039 µg/mL [2, 4]: 6.6%
inhibition at 0.0078 µg/mL [2, 4]: 48.5%
inhibition at 0.0156 µg/mL [2, 4]: 47.2%
inhibition at 0.0313 µg/mL [2, 4]: 70.1%
inhibition at 0.0625 µg/mL [2, 4]: 77%
inhibition at 0.125 µg/mL [2, 4]: 93.6%
inhibition at 0.25 µg/mL [2, 4]: 91.6%
inhibition at 0.5 µg/mL [2, 4]: 92%
inhibition at 1 µg/mL [2, 4]: 93.9%
inhibition at 2 µg/mL [2, 4]: 92.3%
inhibition at 4 µg/mL [2, 4]: 96.2%
inhibition at 8 µg/mL [2, 4]: 94.2%
inhibition at 16 µg/mL [2, 4]: 93.4%
inhibition at 32 µg/mL [2, 4]: 92.1%
inhibition at 64 µg/mL [2, 4]: 91.9%

O=[N+]([O-])c1ccc(-[n+]2nc(-c3ccccc3)nn2-c2ccc(I)cc2)cc1.[Cl-] [INT, p-Iodonitrotetrazolium Violet]
germination or growth of the spores [1]: inhibit germination or growth of the spores

CC1=CC(=O)c2ccccc2C1=O [MEN, menadione]
germination or growth of the spores [1]: inhibit germination or growth of the spores

C[n+]1cc2c3c(ccc2c2ccc4cc5c(cc4c21)OCO5)OCO3 [Sanguinarine, sanguinarine]
IC50 [2, 3]: 1.42 µg/mL
inhibition at 0.0061 µg/mL [2, 3]: 16.2%
inhibition at 0.0122 µg/mL [2, 3]: -3.1%
inhibition at 0.0244 µg/mL [2, 3]: 15.6%
inhibition at 0.0488 µg/mL [2, 3]: 15.7%
inhibition at 0.0977 µg/mL [2, 3]: 42.9%
inhibition at 0.1953 µg/mL [2, 3]: 10.2%
inhibition at 0.3906 µg/mL [2, 3]: 33.8%
inhibition at 0.7813 µg/mL [2, 3]: 45%
inhibition at 1.5625 µg/mL [2, 3]: 49.6%
inhibition at 3.125 µg/mL [2, 3]: 50.8%
inhibition at 6.25 µg/mL [2, 3]: 86.9%
inhibition at 12.5 µg/mL [2, 3]: 89.4%
inhibition at 25 µg/mL [2, 3]: 88.4%
inhibition at 50 µg/mL [2, 3]: 77.3%
inhibition at 100 µg/mL [2, 3]: 53.3%
inhibition at 200 µg/mL [2, 3]: 7%
IC50 [2, 4]: 2.77 µg/mL
inhibition at 0.0061 µg/mL [2, 4]: 10.9%
inhibition at 0.0122 µg/mL [2, 4]: -1.7%
inhibition at 0.0244 µg/mL [2, 4]: 5.1%
inhibition at 0.0488 µg/mL [2, 4]: 7.9%
inhibition at 0.0977 µg/mL [2, 4]: 18.4%
inhibition at 0.1953 µg/mL [2, 4]: -2.4%
inhibition at 0.3906 µg/mL [2, 4]: 12.6%
inhibition at 0.7813 µg/mL [2, 4]: 19.7%
inhibition at 1.5625 µg/mL [2, 4]: 39.8%
inhibition at 3.125 µg/mL [2, 4]: 42.2%
inhibition at 6.25 µg/mL [2, 4]: 86.7%
inhibition at 12.5 µg/mL [2, 4]: 93.7%
inhibition at 25 µg/mL [2, 4]: 92.4%
inhibition at 50 µg/mL [2, 4]: 91.7%
inhibition at 100 µg/mL [2, 4]: 87.5%
inhibition at 200 µg/mL [2, 4]: 79.5%

COc1cc(-c2ccc(-[n+]3nc(-c4ccc([N+](=O)[O-])cc4)nn3-c3ccc([N+](=O)[O-])cc3)c(OC)c2)ccc1-[n+]1nc(-c2ccc([N+](=O)[O-])cc2)nn1-c1ccc([N+](=O)[O-])cc1.[Cl-].[Cl-] [TNTB, Tetranitro Blue Tetrazolium]
germination or growth of the spores [1]: inhibit germination or growth of the spores

c1ccc(-c2nn(-c3ccccc3)[n+](-c3cccc4ccccc34)n2)cc1 [TV, Tetrazolium Violet]
germination or growth of the spores [1]: inhibit germination or growth of the spores
